Measured values as given in patent US10155754B2, “Substituted 2-imino-1,3-thiazolidin-4-ones as N-arachidonoylethanolamine cellular uptake inhibitors” (UNIVERSITAT BERN, priority 2014, dated 2018).

Test system: AEA cellular uptake (U937 cells)
Assay: [3H]-AEA cellular uptake inhibition in U937 cells
Format: cell-based
Conditions: Homo sapiens, U-937, U937 cells, final 100 nM AEA with 0.5 nM [3H]-AEA, 15 min at 37° C.; read-out: AEA uptake IC50
Protocol: [^3H]-AEA Cellular Uptake
Screening for AEA cellular uptake inhibition was performed in a semi-automated procedure: Pipetting and washing steps were performed by a Biomek3000 laboratory workstation. First, required amounts of U937 cells were centrifuged at 100×g for 5 min and resuspended in RPMI (37° C.) to a final concentration of 2×10^6 cells/mL. Then, 250 μL of cell suspension (0.5×10^6 cells per sample) were transferred into AquaSil™ silanized glass vials (Chromacol 1.1-MTV) in 96-well format. After addition of 5 μL vehicle (DMSO) or compounds the cells were incubated at 37° C. for 15 min. As positive controls OMDM-2 and UCM707 were used at 10 μM in each run. The ETI-T compounds were measured at up to 7 concentrations in triplicates from 100 pM-100 μM. After pre-incubation, a mixture of 0.5 nM [ethanolamine-1-^3H]-AEA, (60 Ci/mmol) and 99.5 nM of cold AEA (final 100 nM) was added and samples were incubated at 37° C. for another 15 min. The reaction was stopped by rapid filtration over UniFilter-96 GF/C filters (PerkinElmer) pre-soaked with PBS 0.25% BSA. Cells were washed three times with 100 μL ice-cold PBS buffer containing 1% fatty acid free BSA. After drying, 45 μL MicroScint 20 scintillation cocktail (PerkinElmer, Waltham, Mass., US) was added to the wells and the plate was sealed. Radioactivity was measured by liquid scintillation counting on a PerkinElmer Wallac Trilux MicroBeta 1450 during 2 min. Non-specific binding of [^3H]AEA (100 nM) to the glass vials was never higher than 10%. IC50 values were calculated by GraphPad® by non-linear regression using the built-in log(inhibitor) vs. response-variable slope (four parameters) function.

Compound | IC50 [nM]
Cc1ccc(/N=C2\S/C(=C\c3ccc4c(c3)OCCO4)C(=O)N2c2ccc(Cl)cc2)cc1 [24_A_L, (2Z,5Z)-2-(p-tolylimino)-3-(4-chlorophenyl)-5-((2,3-dihydrobenzo[b][1,4]dioxin-6-yl)methylene)thiazolidin-4-one] | 616
Cc1ccc(N2C(=O)/C(=C/c3ccc4c(c3)OCCO4)S/C2=N\c2ccc(F)cc2)cc1 [24_B_A, (2Z,5Z)-2-(4-fluorophenylimino)-5-((2,3-dihydrobenzo[b][1,4]dioxin-6-yl)methylene)-3-p-tolylthiazolidin-4-one] | 176
O=C1/C(=C/c2ccc3c(c2)OCCO3)S/C(=N\c2ccc(F)cc2)N1c1ccc(Cl)cc1 [24_B_L, (2Z,5Z)-2-(4-fluorophenylimino)-3-(4-chlorophenyl)-5-((2,3-dihydrobenzo[b][1,4]dioxin-6-yl)methylene)thiazolidin-4-one] | 663
O=C1/C(=C/c2ccc3c(c2)OCCO3)S/C(=N\c2ccc(F)cc2)N1c1ccccc1 [24_B_N, (2Z,5Z)-2-(4-fluorophenylimino)-5-((2,3-dihydrobenzo[b][1,4]dioxin-6-yl)methylene)-3-phenylthiazolidin-4-one] | 419
O=C1/C(=C/c2ccc3c(c2)OCCO3)S/C(=N\CCCc2ccccc2)N1c1ccccc1 [24_K_N, (2Z,5Z)-2-(3-phenylpropylimino)-5-((2,3-dihydrobenzo[b][1,4]dioxin-7-yl)methylene)-3-phenylthiazolidin-4-one] | 1620
CC(C)CN1C(=O)/C(=C/c2ccc3ncsc3c2)S/C1=N\c1ccc(F)cc1 [32_B_X, (2Z,5Z)-2-(4-fluorophenylimino)-5-((benzo[d]thiazol-6-yl)methylene)-3-isobutylthiazolidin-4-one] | 993
O=C1/C(=C/c2ccc3[nH]ccc3c2)S/C(=N\c2ccccc2)N1c1ccccc1 [compound 03, (2Z,5Z)-5-((1H-indol-5-yl)methylene)-3-phenyl-2-(phenylimino)thiazolidin-4-one] | 731
COCc1cccc(/C=C2\S/C(=N\c3ccccc3)N(c3ccccc3)C2=O)c1 [compound 15, (2Z,5Z)-5-(3-(methoxymethyl)benzylidene)-3-phenyl-2-(phenylimino)thiazolidin-4-one] | 1030
O=C1/C(=C/c2ccc(CO)cc2)S/C(=N\c2ccccc2)N1c1ccccc1 [compound 22, (2Z,5Z)-5-(4-(hydroxymethyl)benzylidene)-3-phenyl-2-(phenylimino)thiazolidin-4-one] | 729

Next, values leading:

IC50 [nM] | Compound
1510 | Cc1ccc(/N=C2\S/C(=C\c3ccc4c(c3)OCCO4)C(=O)N2c2ccccc2)cc1 [24_A_N, (2Z,5Z)-2-(p-tolylimino)-5-((2,3-dihydrobenzo[b][1,4]dioxin-6-yl)methylene)-3-phenylthiazolidin-4-one]
721 | Cc1ccc(/N=C2\S/C(=C\c3ccc4c(c3)OCCO4)C(=O)N2CC(C)C)cc1 [24_A_X, (2Z,5Z)-2-(p-tolylimino)-5-((2,3-dihydrobenzo[b][1,4]dioxin-6-yl)methylene)-3-isobutylthiazolidin-4-one]
1430 | O=C1/C(=C/c2ccc3c(c2)OCCO3)S/C(=N\Cc2cccnc2)N1c1ccccc1 [24_S_N, (2Z,5Z)-2-((pyridin-3-yl)methylimino)-5-((2,3-dihydrobenzo[b][1,4]dioxin-7-yl)methylene)-3-phenylthiazolidin-4-one]
632 | Cc1ccc(N2C(=O)/C(=C/c3ccc4[nH]cnc4c3)S/C2=N\c2ccc(F)cc2)cc1 [32_B_A, (2Z,5Z)-5-((1H-benzo[d]imidazol-5-yl)methylene)-2-(4-fluorophenylimino)-3-p-tolylthiazolidin-4-one]
515 | Cn1ncc2cc(/C=C3\S/C(=N\c4ccccc4)N(c4ccccc4)C3=O)ccc21 [compound 28, (2Z,5Z)-5-((1-methyl-1H-indazol-5-yl)methylene)-3-phenyl-2-(phenylimino)thiazolidin-4-one]
> 10000 | COCc1ccc(/C=C2\S/C(=N\c3ccccc3)N(c3ccccc3)C2=O)cc1 [compound 34, (2Z,5Z)-5-(4-(methoxymethyl)benzylidene)-3-phenyl-2-(phenylimino)thiazolidin-4-one]

Same assay, conditions: Homo sapiens, U-937, U937 cells, final 100 nM AEA with 0.5 nM [3H]-AEA, 15 min at 37° C.; read-out: AEA uptake inhibition IC50

Compound | IC50 [nM]
COCc1cccc(/C=C2\S/C(=N\c3ccccc3)N(c3ccccc3)C2=O)c1 [drawing 117] | 1000
O=C1/C(=C/c2ccc3c(c2)OCCO3)S/C(=N\c2ccccc2)N1c1ccccc1 [drawing 119] | 817
O=C1/C(=C/c2ccc(CO)cc2)S/C(=N\c2ccccc2)N1c1ccccc1 [drawing 121] | 729
Cn1ncc2cc(/C=C3\S/C(=N\c4ccccc4)N(c4ccccc4)C3=O)ccc21 [drawing 126] | 515
O=C1/C(=C/c2ccc3ncsc3c2)S/C(=N\c2ccccc2)N1c1ccccc1 [drawing 129] | 291
O=C1/C(=C/c2ccc3c(c2)OCCO3)S/C(=N\Cc2ccccc2)N1c1ccccc1 [drawing 133] | 170
COCc1cccc(/C=C2\S/C(=N\Cc3ccccc3)N(c3ccccc3)C2=O)c1 [drawing 139] | 1690
COc1ccc(/N=C2\S/C(=C\c3ccc(CO)cc3)C(=O)N2c2ccccc2)cc1 [drawing 140] | 135
Cc1ccc(/N=C2\S/C(=C\c3ccc(CO)cc3)C(=O)N2c2ccccc2)nc1 [drawing 143] | 1450
Cc1ccc(/N=C2\S/C(=C\c3ccc4[nH]cnc4c3)C(=O)N2c2ccccc2)nc1 [drawing 146] | 1590
COc1ccc(/N=C2\S/C(=C\c3ccc4[nH]ccc4c3)C(=O)N2c2ccccc2)cc1 [drawing 150] | 1070
CCCCN1C(=O)/C(=C/c2ccc3[nH]cnc3c2)S/C1=N\c1ccccc1 [drawing 154] | 557
O=C1/C(=C/c2ccc(CO)cc2)S/C(=N\c2ccccc2)N1Cc1ccccc1 [drawing 156] | 657
O=C1/C(=C/c2ccc(CO)cc2)S/C(=N\c2ccccc2)N1Cc1ccco1 [drawing 157] | 1310
CCCCN1C(=O)/C(=C/c2ccc(CO)cc2)S/C1=N\c1ccccc1 [drawing 158] | 1090

Other lines, results leading:

IC50 [nM] | Compound
731 | O=C1/C(=C/c2ccc3[nH]ccc3c2)S/C(=N\c2ccccc2)N1c1ccccc1 [drawing 108]
194 | O=C1/C(=C/c2ccc3[nH]cnc3c2)S/C(=N\c2ccccc2)N1c1ccccc1 [drawing 109]
180 | O=C1/C(=C/c2ccccc2)S/C(=N\Cc2ccccc2)N1c1ccccc1 [drawing 130]
111 | Cc1ccc(/N=C2\S/C(=C\c3ccc(CO)cc3)C(=O)N2c2ccccc2)cc1 [drawing 141]
257 | O=C1/C(=C/c2ccc(CO)cc2)S/C(=N\Cc2ccccc2)N1c1ccccc1 [drawing 142]
107 | Cc1ccc(/N=C2\S/C(=C\c3ccc4[nH]cnc4c3)C(=O)N2c2ccccc2)cc1 [drawing 144]
164 | COc1ccc(/N=C2\S/C(=C\c3ccc4[nH]cnc4c3)C(=O)N2c2ccccc2)cc1 [drawing 147]
879 | O=C1/C(=C/c2ccc3[nH]ccc3c2)S/C(=N\c2ccccc2)N1Cc1ccco1 [drawing 153]

Same assay, conditions: U937 cells, final 100 nM AEA with 0.5 nM [3H]-AEA, 15 min at 37° C.; read-out: AEA uptake IC50

Compound | IC50 [nM]
(2Z,5Z)-5-((1H-benzo[d]imidazol-5-yl)methylene)-3-butyl-2-(phenylimino)thiazolidin-4- [03_N_G] | 677
